From PubChem BioAssay AID328 (DTP/NCI, 2004)
Where “and” joins values, the source holds several entries; their conditions need not be identical. Equal entries are not always repeated. Inconclusive results and toxic doses are left out. Residues, ends and D or L forms follow the SMILES beside them. *: point of attachment. Cbz = O=C(OCc1ccccc1)*

System: BDF1 mice, P388 leukemia ip, median survival T/C
Test: NCI In Vivo Anticancer Drug Screen. Data for tumor model P388 Leukemia (intraperitoneal) in B6D2F1 (BDF1) mice
Conditions: endpoint: median survival time, higher = longer survival
Method in brief: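 Reported as T/C, where T is the survival measurement in dosed animals and C the same measurement in vehicle controls.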

[1] = dose: 100.0 mg/kg/injection, schedule: Q01DX009 (ip), vehicle: Klucel (hydroxypropylcellulose) (HPC)
[2] = dose: 100.0 mg/kg/injection, schedule: Q04DX003 (ip), vehicle: Klucel (hydroxypropylcellulose) (HPC)
[3] = dose: 100.0 mg/kg/injection, schedule: Q01DX009 (ip), vehicle: saline with Tween-80
[4] = dose: 400.0 mg/kg/injection, schedule: Q01DX009 (ip), vehicle: saline with Tween-80
[5] = dose: 25.0 mg/kg/injection, schedule: Q01DX009 (ip), vehicle: Klucel (hydroxypropylcellulose) (HPC)
[6] = dose: 25.0 mg/kg/injection, schedule: Q04DX003 (ip), vehicle: saline with Tween-80
[7] = dose: 50.0 mg/kg/injection, schedule: Q01DX009 (ip), vehicle: Klucel (hydroxypropylcellulose) (HPC)
[8] = dose: 50.0 mg/kg/injection, schedule: Q04DX003 (ip), vehicle: saline with Tween-80

With `O=c1ccccn1C/C(=N\O)c1ccccc1` the T/C [1] was 95 % of control, the T/C [2] was 100 % of control and the T/C (dose: 200.0 mg/kg/injection, schedule: Q01DX009 (ip), vehicle: Klucel (hydroxypropylcellulose) (HPC)) was 95 % of control. The T/C (dose: 200.0 mg/kg/injection, schedule: Q04DX003 (ip), vehicle: Klucel (hydroxypropylcellulose) (HPC)) was 95 % of control, the T/C (dose: 400.0 mg/kg/injection, schedule: Q01DX009 (ip), vehicle: Klucel (hydroxypropylcellulose) (HPC)) was 100 % of control and the T/C (dose: 400.0 mg/kg/injection, schedule: Q04DX003 (ip), vehicle: Klucel (hydroxypropylcellulose) (HPC)) was 100 % of control.
`O=C(O)C(Cc1ccccc1)NC(=O)C1CCCN1C(=O)OCc1ccccc1` (stereo not drawn) (Cbz-Pro-Phe-OH; configuration not given here) was tested, and the T/C (dose: 50.0 mg/kg/injection, schedule: Q01DX005 (ip), vehicle: saline with Tween-80) was 97 % of control, the T/C (dose: 100.0 mg/kg/injection, schedule: Q01DX005 (ip), vehicle: saline with Tween-80) was 101 % of control and the T/C (dose: 200.0 mg/kg/injection, schedule: Q01DX005 (ip), vehicle: saline with Tween-80) was 95 % of control.
In the case of `Cc1cc(NC(=O)Nc2cccc(C3=NCCN3)c2)ccc1NC(=O)Nc1cccc(C2=NCCN2)c1`, the T/C [3] is reported as 118 % of control and the T/C [4] is reported as 190 % of control.
In the case of `C=C(Cl)CSCCS`, the T/C (dose: 25.0 mg/kg/injection, schedule: Q01DX009 (ip), vehicle: acetone) is reported as 104 % of control and the T/C (dose: 50.0 mg/kg/injection, schedule: Q01DX009 (ip), vehicle: acetone) is reported as 104 % of control.
For `OC(c1ccccc1)c1ccccc1`, the T/C (dose: 100.0 mg/kg/injection, schedule: Q01DX001 (ip), vehicle: other) was 95 % of control, the T/C (dose: 200.0 mg/kg/injection, schedule: Q01DX001 (ip), vehicle: other) was 104 % of control and the T/C (dose: 400.0 mg/kg/injection, schedule: Q01DX001 (ip), vehicle: other) was 100 % of control.
In the case of `O=[N+]([O-])c1ccc([N+](=O)[O-])c(Cl)c1`, the T/C (dose: 12.5 mg/kg/injection, schedule: Q04DX003 (ip), vehicle: saline with Tween-80) is reported as 90 % of control, the T/C [5] is reported as 100 % of control and the T/C [6] is reported as 109 % of control. The T/C [7] was 109 % of control, the T/C [8] was 109 % of control and the T/C [1] was 118 % of control. For the same compound, the T/C [2] was 109 % of control and the T/C (dose: 150.0 mg/kg/injection, schedule: Q01DX009 (ip), vehicle: Klucel (hydroxypropylcellulose) (HPC)) was 118 % of control.
With `CCOC(=O)c1ccc(N(CCOS(C)(=O)=O)CCOS(C)(=O)=O)cc1` the T/C (dose: 66.0 mg/kg/injection, schedule: Q01DX008 (ip), vehicle: saline with Tween-80) was 200 % of control, the T/C (dose: 100.0 mg/kg/injection, schedule: Q01DX008 (ip), vehicle: saline with Tween-80) was 222 % of control and the T/C (dose: 132.0 mg/kg/injection, schedule: Q04DX003 (ip), vehicle: saline with Tween-80) was 177 % of control. For the same compound, the T/C (dose: 150.0 mg/kg/injection, schedule: Q01DX008 (ip), vehicle: saline with Tween-80) was 272 % of control, the T/C (dose: 200.0 mg/kg/injection, schedule: Q04DX003 (ip), vehicle: saline with Tween-80) was 190 % of control and the T/C (dose: 300.0 mg/kg/injection, schedule: Q04DX003 (ip), vehicle: saline with Tween-80) was 195 % of control.
For `Clc1nc2n[nH]nc2nc1Cl`, the T/C (dose: 3.13 mg/kg/injection, schedule: Q01DX009 (ip), vehicle: saline) was 100 % of control and the T/C (dose: 6.25 mg/kg/injection, schedule: Q01DX009 (ip), vehicle: saline) was 95 % of control.
In the case of `CS(=O)(=O)OCCC(=O)NCNC(=O)CCOS(C)(=O)=O`, the T/C (dose: 9.0 mg/kg/injection, schedule: Q04DX003 (ip), vehicle: Klucel (hydroxypropylcellulose) (HPC)) is reported as 100 % of control, the T/C (dose: 12.0 mg/kg/injection, schedule: Q04DX003 (ip), vehicle: Klucel (hydroxypropylcellulose) (HPC)) is reported as 113 % of control and the T/C (dose: 12.5 mg/kg/injection, schedule: Q01DX009 (ip), vehicle: Klucel (hydroxypropylcellulose) (HPC)) is reported as 150 % of control. For the same compound, the T/C (dose: 13.0 mg/kg/injection, schedule: Q04DX003 (ip), vehicle: Klucel (hydroxypropylcellulose) (HPC)) was 113 % of control, the T/C (dose: 22.0 mg/kg/injection, schedule: Q01DX009 (ip), vehicle: Klucel (hydroxypropylcellulose) (HPC)) was 156 % of control and the T/C [5] was 172 % of control. The T/C (dose: 25.0 mg/kg/injection, schedule: Q04DX003 (ip), vehicle: Klucel (hydroxypropylcellulose) (HPC)) was 163 % of control, the T/C (dose: 33.0 mg/kg/injection, schedule: Q01DX009 (ip), vehicle: Klucel (hydroxypropylcellulose) (HPC)) was 176 % of control and the T/C (dose: 33.0 mg/kg/injection, schedule: Q04DX003 (ip), vehicle: Klucel (hydroxypropylcellulose) (HPC)) was 155 % of control and 171 % of control. For the same compound, the T/C [7] was 168 % of control and 218 % of control, the T/C (dose: 50.0 mg/kg/injection, schedule: Q04DX003 (ip), vehicle: Klucel (hydroxypropylcellulose) (HPC)) was 181 % of control and 185 % of control and 195 % of control and the T/C (dose: 75.0 mg/kg/injection, schedule: Q01DX009 (ip), vehicle: Klucel (hydroxypropylcellulose) (HPC)) was 124 % of control. The T/C (dose: 75.0 mg/kg/injection, schedule: Q04DX003 (ip), vehicle: Klucel (hydroxypropylcellulose) (HPC)) was 190 % of control and 214 % of control.
For `COc1ccc(Nc2ccnc3cc(Cl)ccc23)cc1CN(CCCl)CCCl`, the T/C (dose: 0.11 mg/kg/injection, schedule: Q01DX009 (ip), vehicle: saline) was 100 % of control, the T/C (dose: 0.13 mg/kg/injection, schedule: Q01DX009 (ip), vehicle: saline) was 89 % of control and the T/C (dose: 0.2 mg/kg/injection, schedule: Q01DX009 (ip), vehicle: saline) was 180 % of control. The T/C (dose: 0.22 mg/kg/injection, schedule: Q01DX009 (ip), vehicle: saline) was 117 % of control, the T/C (dose: 0.22 mg/kg/injection, schedule: Q04DX003 (ip), vehicle: saline) was 113 % of control and the T/C (dose: 0.33 mg/kg/injection, schedule: Q04DX003 (ip), vehicle: saline) was 104 % of control. For the same compound, the T/C (dose: 0.44 mg/kg/injection, schedule: Q01DX009 (ip), vehicle: saline) was 166 % of control, the T/C (dose: 0.5 mg/kg/injection, schedule: Q04DX003 (ip), vehicle: saline) was 122 % of control and the T/C (dose: 0.66 mg/kg/injection, schedule: Q01DX009 (ip), vehicle: saline) was 163 % of control. For the same compound, the T/C (dose: 1.0 mg/kg/injection, schedule: Q01DX009 (ip), vehicle: saline) was 163 % of control, the T/C (dose: 1.25 mg/kg/injection, schedule: Q01DX009 (ip), vehicle: Klucel (hydroxypropylcellulose) (HPC)) was 155 % of control and the T/C (dose: 1.5 mg/kg/injection, schedule: Q01DX009 (ip), vehicle: saline) was 176 % of control. For the same compound, the T/C (dose: 2.5 mg/kg/injection, schedule: Q01DX009 (ip), vehicle: Klucel (hydroxypropylcellulose) (HPC)) was 155 % of control, the T/C (dose: 3.13 mg/kg/injection, schedule: Q04DX003 (ip), vehicle: saline) was 154 % of control and the T/C (dose: 4.0 mg/kg/injection, schedule: Q01DX009 (ip), vehicle: saline) was 86 % of control. The T/C (dose: 25.0 mg/kg/injection, schedule: Q04DX003 (ip), vehicle: saline sonified) was 88 % of control.
With `C[C@]12CC[C@@H]3c4ccc(OC(=O)Cc5ccc(N(CCCl)CCCl)cc5)cc4CC[C@H]3[C@@H]1CC[C@@H]2OC(=O)Cc1ccc(N(CCCl)CCCl)cc1` the T/C (dose: 64.0 mg/kg/injection, schedule: Q01DX009 (ip), vehicle: Klucel (hydroxypropylcellulose) (HPC)) was 95 % of control and 105 % of control, the T/C [3] was 118 % of control and the T/C (dose: 128.0 mg/kg/injection, schedule: Q01DX009 (ip), vehicle: Klucel (hydroxypropylcellulose) (HPC)) was 98 % of control and 123 % of control. For the same compound, the T/C (dose: 256.0 mg/kg/injection, schedule: Q01DX009 (ip), vehicle: Klucel (hydroxypropylcellulose) (HPC)) was 111 % of control, the T/C (dose: 264.0 mg/kg/injection, schedule: Q04DX003 (ip), vehicle: saline with Tween-80) was 108 % of control and the T/C [4] was 200 % of control. The T/C (dose: 400.0 mg/kg/injection, schedule: Q04DX003 (ip), vehicle: saline with Tween-80) was 112 % of control and the T/C (dose: 512.0 mg/kg/injection, schedule: Q01DX009 (ip), vehicle: Klucel (hydroxypropylcellulose) (HPC)) was 195 % of control.
For `COC(=O)CCC1([N+](=O)[O-])CCCCC1`, the T/C (dose: 25.0 mg/kg/injection, schedule: Q01DX009 (ip), vehicle: saline with Tween-80) was 87 % of control, the T/C [6] was 92 % of control and the T/C (dose: 50.0 mg/kg/injection, schedule: Q01DX009 (ip), vehicle: saline with Tween-80) was 95 % of control. For the same compound, the T/C [8] was 92 % of control, the T/C [3] was 95 % of control and the T/C (dose: 100.0 mg/kg/injection, schedule: Q04DX003 (ip), vehicle: saline with Tween-80) was 88 % of control.
